# Where two headings read alike, the source gives them in different places.
# What was measured:
# C57BL/6J = assay: Randomized controlled trial in mice, compounds in Lipoderm applied daily to right flank (Example 1); type: in vivo; conditions: for Local increase in subcutaneous fat / asymmetry between flanks: following 24 days of therapy, right flank treated, left flank untreated
# Experimental: The arms were as follows: vehicle (Lipoderm®), a thiazolidinedione (pioglitazone), harmine, an orexigenic compound (megestrol acetate), and efavirenz. Each compound was combined in the percutaneous Lipoderm® formulation at an equimolar concentration (5 mM). The Lipoderm® vehicle is adapted to deliver the respective compound percutaneously, i.e., across the skin and into subcutaneous fat. The formulations were applied daily to the right flank of each animal, whereas the left flank was used as an untreated control.
# A randomized controlled trial was conducted on C57BL/6J. Male mice approximately six weeks old were prospectively randomized into groups and assigned to the following treatment conditions (n=5 animals per group):
# Animals were shaved and depilated over the flanks at the start of the study.
# Animals were kept in identical conditions and fed ab libitum with a standardized high-fat diet (70% kcal fat). Animals were weighed three times weekly. Following 24 consecutive days of treatment, mice were sacrificed and samples of skin and adjacent fat from the treated flanks are taken for histologic examination.
# patient = assay: Clinical application for augmentation of the buttocks (Example 9); type: in vivo, human; conditions: 10 mg/ml in Lipoderm daily, after 6 months; contemplated
# Experimental: The following description exemplifies a clinical application of percutaneous administration of an orexigenic pregnane derivative for augmentation of the buttocks. A female or male patient wishes to undergo a buttocks augmentation procedure but is concerned about the risks of surgery. The physician prescribes a daily application of megestrol acetate (for example, 10 mg/ml in Lipoderm®) to the buttocks.
# Gottingen minipigs = conditions: for Increase over Placebo in subcutaneous fat thickness, MEAN: mean of 24 sites, 42 days
# Experimental: (§1) A prospective controlled trial was performed in 4 Gottingen minipigs (2 males, 2 females). Hair on the back was clipped. […] An equivalent Vehicle Treatment Area was marked on the left side of the animal, such that the two treatment areas were anatomically equivalent. […] After 42 days of treatment, plasma pharmacokinetics (PK) was assessed on all animals by Liquid Chromatography/Tandem Mass Spectrometry. Necropsy was done and samples of skin, subcutaneous fat, and muscle were collected en bloc from each treatment area in a controlled fashion. […] Table 5 presents the thicknesses of subcutaneous fat on each of six treated and control (vehicle) locations, by animal. […] Table 6 compares plasma PK following percutaneous administration (present study) with plasma PK following oral administration in humans.
# [1] = Plasma pharmacokinetics after percutaneous administration in minipigs (Example 4); conditions: percutaneous versus oral
# Experimental: as §1
structure (smiles),measurement,setting,value
O=C1Nc2ccc(Cl)cc2[C@@](C#CC2CC2)(C(F)(F)F)O1 [Efavirenz],Local increase in subcutaneous fat / asymmetry between flanks,C57BL/6J,did not exhibit any increase in fat or asymmetry between the two flanks
COc1ccc2c(c1)[nH]c1c(C)nccc12 [Harmine],Local increase in subcutaneous fat / asymmetry between flanks,C57BL/6J,did not exhibit any increase in fat or asymmetry between the two flanks
CC(=O)O[C@]1(C(C)=O)CC[C@H]2[C@@H]3C=C(C)C4=CC(=O)CC[C@]4(C)[C@H]3CC[C@@]21C [Megestrol acetate],Relative skin fold thickness of left and right flanks,C57BL/6J; examined on Day 24,"asymmetric, with thicker skin folds on the treated flanks compared to the untreated flanks"
same,Local increase in subcutaneous fat / asymmetry between flanks,C57BL/6J,exhibited local increases in subcutaneous fat
same,"Thickness of skin fold, right (treated) flank","C57BL/6J; representative mouse, 24 days of treatment, left (untreated) flank about 2 mm",about 4 mm
same,"Buttocks size, clinical appearance",patient,the buttocks appear clinically larger
CN(CCOc1ccc(CC2SC(=O)NC2=O)cc1)c1ccccn1 (centres unmarked) [Rosiglitazone],"Increase over Placebo in subcutaneous fat thickness, MEAN",Gottingen minipigs,48%
same,"Increase over Placebo in subcutaneous fat thickness, MEAN",Gottingen minipigs; listed as rosiglitazone,48%
same,Tolerability,"Gottingen minipigs; minipig, in vivo","well tolerated, with no evidence of skin irritation or other clinical observations"
same,"Peak plasma concentration, lower than for oral (systemic) therapy",[1],about 3400 fold
same,"Plasma exposure, lower than for oral (systemic) therapy",[1],~1300 fold
